Patent US9193722B2, “Tri-cyclic pyrazolopyridine kinase inhibitors” (Vertex Pharmaceuticals Incorporated, priority 2008, dated 2015)

What was measured:
Assay type in all cases: biochemical
PKC theta kinase = PKC theta kinase (Homo sapiens, UniProt Q04759); experiment: PKC theta kinase inhibition, coupled-enzyme (NADH absorbance) assay, Ki; conditions: 240 μM ATP, 18 nM PKC theta kinase, 30° C.
Procedure, shortened: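 Enzyme and compound equilibrated 10 min at 30 °C before reaction in HEPES pH 7.5 buffer with MgCl2, NaCl, EDTA and Brij. Activity tracked as NADH loss at 340 nm through a coupled system. Initial-rate data fitted by non-linear regression to give Ki.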

PKC alpha kinase = PKC alpha kinase (Homo sapiens, UniProt P17252); experiment: PKC alpha kinase inhibition, coupled-enzyme (NADH absorbance) assay, Ki; conditions: 130 μM ATP, 4.5 nM PKC alpha kinase, 30° C.
Procedure, shortened: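 Ki derived by non-linear regression of initial rates from a coupled assay tracking NADH absorbance at 340 nm over 15 min at 30 °C. ATP was 130 μM final after a 10 min compound–enzyme preincubation in HEPES pH 7.5 buffer with MgCl2, CaCl2, NaCl, EDTA and Brij.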

PKC delta kinase = PKC delta kinase (Homo sapiens, UniProt Q05655); experiment: PKC delta kinase inhibition, coupled-enzyme (NADH absorbance) assay, Ki; conditions: 150 μM ATP, 46 nM PKC delta kinase, 30° C.; read-out: Ki PKC delta
PKC delta kinase, sequence (Q05655 whole entry): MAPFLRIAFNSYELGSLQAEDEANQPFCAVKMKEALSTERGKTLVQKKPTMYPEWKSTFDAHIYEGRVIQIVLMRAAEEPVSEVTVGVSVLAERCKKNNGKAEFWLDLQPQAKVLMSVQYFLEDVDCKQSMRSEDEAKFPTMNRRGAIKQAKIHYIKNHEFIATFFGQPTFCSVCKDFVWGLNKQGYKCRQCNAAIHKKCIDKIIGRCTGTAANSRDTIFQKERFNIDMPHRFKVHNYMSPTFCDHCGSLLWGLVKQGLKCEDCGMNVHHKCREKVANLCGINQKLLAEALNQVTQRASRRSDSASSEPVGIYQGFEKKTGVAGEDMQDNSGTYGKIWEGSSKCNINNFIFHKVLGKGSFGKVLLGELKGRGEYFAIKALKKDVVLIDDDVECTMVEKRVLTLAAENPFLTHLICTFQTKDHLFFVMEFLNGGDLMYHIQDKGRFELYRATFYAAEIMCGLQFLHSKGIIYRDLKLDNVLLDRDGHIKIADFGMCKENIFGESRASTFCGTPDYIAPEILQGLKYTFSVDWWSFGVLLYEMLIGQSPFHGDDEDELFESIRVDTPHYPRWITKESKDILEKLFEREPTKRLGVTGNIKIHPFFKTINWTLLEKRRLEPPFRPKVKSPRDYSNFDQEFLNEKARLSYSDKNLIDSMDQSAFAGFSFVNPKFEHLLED
Procedure, shortened: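 Enzyme and compound pre-equilibrated 10 min at 30° C before adding ATP to 150 μM final. Buffer: HEPES pH 7.5 (100 mM), 10 mM MgCl2, 25 mM NaCl, 0.1 mM EDTA, 0.01% Brij.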

PKC theta kinase, sequence (Q04759 whole entry): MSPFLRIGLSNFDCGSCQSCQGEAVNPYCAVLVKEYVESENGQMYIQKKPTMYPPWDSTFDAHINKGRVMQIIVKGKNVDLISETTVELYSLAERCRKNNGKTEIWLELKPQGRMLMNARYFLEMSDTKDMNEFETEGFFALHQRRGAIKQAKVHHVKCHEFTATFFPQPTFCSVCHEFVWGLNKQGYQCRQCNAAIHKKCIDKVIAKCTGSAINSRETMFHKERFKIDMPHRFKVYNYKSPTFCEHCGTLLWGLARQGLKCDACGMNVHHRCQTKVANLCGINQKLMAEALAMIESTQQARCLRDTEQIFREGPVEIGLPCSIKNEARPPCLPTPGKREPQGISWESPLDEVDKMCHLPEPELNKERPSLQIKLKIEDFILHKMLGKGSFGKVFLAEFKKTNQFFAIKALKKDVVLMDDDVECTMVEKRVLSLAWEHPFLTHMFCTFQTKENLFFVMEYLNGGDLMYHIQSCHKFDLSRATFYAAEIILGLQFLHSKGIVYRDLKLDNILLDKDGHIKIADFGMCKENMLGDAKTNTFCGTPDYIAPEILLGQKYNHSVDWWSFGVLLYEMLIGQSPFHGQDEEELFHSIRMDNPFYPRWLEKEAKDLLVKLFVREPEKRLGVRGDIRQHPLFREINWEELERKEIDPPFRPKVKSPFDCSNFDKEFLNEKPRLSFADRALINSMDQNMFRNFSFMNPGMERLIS

| SMILES | Ki (PKC theta kinase) [nM] | Ki (PKC alpha kinase) [nM] | Ki (PKC delta kinase) [nM] |
| --- | --- | --- | --- |
| NC(=O)CC1CN(c2ccc(C(F)(F)F)c(-c3n[nH]c4ncccc34)n2)CCN1 (stereo not drawn) [Compound 209] | < 500 | > 1250 | > 1250 |
| CNC(=O)CC1CN(c2ccc(C(F)(F)F)c(-c3n[nH]c4ncccc34)n2)CCN1 (stereo not drawn) [Compound 210] | < 500 | > 1250 | > 1250 |
| CN(C)C(=O)CC1CN(c2ccc(C(F)(F)F)c(-c3n[nH]c4ncccc34)n2)CCN1 (stereo not drawn) [Compound 211] | > 700 | > 1250 | > 1250 |
| CCNC(=O)CC1CN(c2ccc(C(F)(F)F)c(-c3n[nH]c4ncccc34)n2)CCN1 (stereo not drawn) [Compound 212] | > 700 | > 1250 | > 1250 |
| NC(=O)C1CN(c2ccc(C(F)(F)F)c(-c3n[nH]c4ncccc34)n2)CCN1 (stereo not drawn) [Compound 213] | > 700 | > 1250 | > 1250 |
| CNC(=O)C1CN(c2ccc(C(F)(F)F)c(-c3n[nH]c4ncccc34)n2)CCN1 (stereo not drawn) [Compound 214] | > 700 | > 1250 | > 1250 |
| CN(C)C(=O)C1CN(c2ccc(C(F)(F)F)c(-c3n[nH]c4ncccc34)n2)CCN1 (stereo not drawn) [Compound 215] | > 700 | > 1250 | > 1250 |
| CCNC(=O)C1CN(c2ccc(C(F)(F)F)c(-c3n[nH]c4ncccc34)n2)CCN1 (stereo not drawn) [Compound 216] | > 700 | > 1250 | > 1250 |
| CC(C)CC1CN(c2ccc(C(F)(F)F)c(-c3n[nH]c4ncccc34)n2)CC(CF)N1 (stereo not drawn) [Compound 217] | > 700 | > 1250 | > 1250 |
| CC(C)C[C@]1(O)CN(c2ccc(C(F)(F)F)c(-c3n[nH]c4ncccc34)n2)CC[C@H]1N [Compound 218] | < 50 | < 500 | < 500 |
| CC(C)C[C@]1(O)CN(c2ccc(C(F)(F)F)c(-c3n[nH]c4ncccc34)n2)CC[C@@H]1N [Compound 219] | < 500 | < 2800 | < 500 |
| Fc1ccc(N2CCNC(C3CC3)C2)nc1-c1n[nH]c2ncccc12 (stereo not drawn) [Compound 220] | < 50 | < 2800 | < 500 |
| COC(C)C1CN(c2ccc(C(F)(F)F)c(-c3n[nH]c4ncccc34)n2)CCN1 (stereo not drawn) [Compound 221] | < 500 | > 1250 | > 1250 |
| CC(C)C[C@H]1CN(c2ccc(C(F)(F)F)c(-c3n[nH]c4ncccc34)n2)CC(F)(F)CN1 [Compound 222] | > 700 | > 1250 | > 1250 |
| CCC[C@H]1CN(c2ccc(C(F)(F)F)c(-c3n[nH]c4ncccc34)n2)CC(F)(F)CN1 [Compound 223] | > 700 | > 1250 | > 1250 |
| CC(C)C[C@H]1CN(c2ccc(C(F)(F)F)c(-c3n[nH]c4ncccc34)n2)CCCN1 [Compound 224] | < 500 | > 1250 | > 1250 |
| CC(C)C[C@H]1CN(c2cccc(-c3n[nH]c4ncccc34)n2)CC(F)(F)CN1 [Compound 225] | < 500 | > 1250 | > 1250 |
| CN1CCN(c2ccc(F)c(-c3n[nH]c4ncccc34)n2)CC1 [Compound 226, 3-(3-fluoro-6-(4-methylpiperazin-1-yl)pyridin-2-yl)-1H-pyrazolo[3,4-b]pyridine] | < 500 | > 1250 | > 1250 |

| SMILES | Ki (PKC theta kinase) [nM] | Ki (PKC alpha kinase) [nM] | Ki (PKC delta kinase) [nM] |
| --- | --- | --- | --- |
| CCC[C@H]1CN(c2cccc(-c3n[nH]c4ncccc34)n2)CC(F)(F)CN1 [Compound 227] | < 500 | > 1250 | > 1250 |
| CCC[C@H]1CN(c2cccc(-c3n[nH]c4ncccc34)n2)CCCN1 [Compound 228] | < 50 | < 500 | < 500 |
| OC1(C2CN(c3ccc(F)c(-c4n[nH]c5ncccc45)n3)CCN2)COC1 (stereo not drawn) [Compound 230] | < 50 | > 1250 | > 1250 |
| OC1(C2CN(c3cccc(-c4n[nH]c5ncccc45)n3)CCN2)COC1 (stereo not drawn) [Compound 232] | > 700 | > 1250 | > 1250 |
| OC1(C2CN(c3ccc(C(F)(F)F)c(-c4n[nH]c5ncccc45)n3)CCN2)COC1 (stereo not drawn) [Compound 233] | > 700 | > 1250 | > 1250 |
| N#CC1(c2cccc(-c3n[nH]c4ncccc34)n2)CCNCC1 [Compound 234] | < 50 | < 500 | < 500 |
| CC(C)C(C)(O)C1CN(c2ccc(C(F)(F)F)c(-c3n[nH]c4ncccc34)n2)CCN1 (stereo not drawn) [Compound 236] | < 50 | > 1250 | > 1250 |
| CC(C)C(C)C1CN(c2ccc(F)c(-c3n[nH]c4ncccc34)n2)CCN1 (stereo not drawn) [Compound 238] | < 50 | > 1250 | < 500 |
| OC1(C2CN(c3ccc(F)c(-c4n[nH]c5ncccc45)n3)CCN2)CCC1 (stereo not drawn) [Compound 240] | < 50 | > 1250 | < 500 |
| CCC(C)(O)C1CN(c2ccc(F)c(-c3n[nH]c4ncccc34)n2)CCN1 (stereo not drawn) [Compound 241] | < 50 | < 2800 | < 500 |
| CCC(C)(O)C1CN(c2ccc(F)c(-c3n[nH]c4ncccc34)n2)CCN1 (stereo not drawn) [Compound 242] | < 50 | > 1250 | < 500 |
| CCC(C)(O)C1CN(c2ccc(F)c(-c3n[nH]c4ncccc34)n2)CCN1 (stereo not drawn) [Compound 243] | < 500 | > 1250 | > 1250 |
| CCC(C)(O)C1CN(c2ccc(F)c(-c3n[nH]c4ncccc34)n2)CCN1 (stereo not drawn) [Compound 244] | < 500 | > 1250 | > 1250 |
| OC1(C2CN(c3ccc(F)c(-c4n[nH]c5ncccc45)n3)CCN2)CCCC1 (stereo not drawn) [Compound 245] | < 50 | > 1250 | < 500 |
| CC(F)(F)C(C)(O)C1CN(c2ccc(F)c(-c3n[nH]c4ncccc34)n2)CCN1 (stereo not drawn) [Compound 246] | < 50 | > 1250 | < 500 |
| CC(O)(C1CC1)C1CN(c2ccc(F)c(-c3n[nH]c4ncccc34)n2)CCN1 (stereo not drawn) [Compound 247] | < 50 | < 2800 | < 500 |
| CC(C)(F)C(C)(O)C1CN(c2ccc(F)c(-c3n[nH]c4ncccc34)n2)CCN1 (stereo not drawn) [Compound 248] | < 1 | < 2800 | < 500 |

More lines, now with the values ahead:

| Ki (PKC theta kinase) [nM] | Ki (PKC alpha kinase) [nM] | Ki (PKC delta kinase) [nM] | SMILES |
| --- | --- | --- | --- |
| < 50 | > 1250 | > 1250 | CC(C)(F)C(C)(O)C1CN(c2ccc(F)c(-c3n[nH]c4ncccc34)n2)CCN1 (stereo not drawn) [Compound 249] |
| < 50 | > 1250 | < 500 | CC(C)(F)C(C)(O)C1CN(c2ccc(F)c(-c3n[nH]c4ncccc34)n2)CCN1 (stereo not drawn) [Compound 250] |
| < 50 | > 1250 | < 500 | OC1([C@@H]2CN(c3ccc(F)c(-c4n[nH]c5ncccc45)n3)CCN2)CC1 [Compound 251] |
| < 50 | < 2800 | < 500 | CC(C)C(O)C1CN(c2ccc(F)c(-c3n[nH]c4ncccc34)n2)CCN1 (stereo not drawn) [Compound 252] |
| < 1 | > 1250 | < 50 | CC(C)(F)C(C)(O)C1CN(c2ccc(F)c(-c3n[nH]c4ncccc34)n2)CCN1 (stereo not drawn) [Compound 254] |
| > 700 | > 1250 | > 1250 | O=C1CN(c2ccc(F)c(-c3n[nH]c4ncccc34)n2)CCN1 [Compound 255] |
| < 500 | > 1250 | > 1250 | CC1CN(c2ccc(F)c(-c3n[nH]c4ncccc34)n2)CC(C2(O)CCC2)N1 (stereo not drawn) [Compound 256] |
| > 700 | > 1250 | > 1250 | OCCC1CCCCN1c1ccc(C(F)(F)F)c(-c2n[nH]c3ncccc23)n1 (stereo not drawn) [Compound 257] |
| > 700 | > 1250 | > 1250 | OCC1CCCN(c2ccc(C(F)(F)F)c(-c3n[nH]c4ncccc34)n2)C1 (stereo not drawn) [Compound 258] |
| > 700 | > 1250 | > 1250 | NC(=O)C1(N2CCCCC2)CCN(c2ccc(C(F)(F)F)c(-c3n[nH]c4ncccc34)n2)CC1 [Compound 259] |
| < 500 | > 1250 | > 1250 | Cc1cc([C@@H]2CN(c3ccc(F)c(-c4n[nH]c5ncccc45)n3)CCN2)[nH]n1 [Compound 260] |
| > 700 | > 1250 | > 1250 | CC1CN(c2ccc(C(F)(F)F)c(-c3n[nH]c4ncccc34)n2)CC(C2(O)CCC2)N1 (stereo not drawn) [Compound 261] |
| < 50 | > 1250 | < 500 | CC(N)[C@H]1CCCN(c2ccc(F)c(-c3n[nH]c4ncccc34)n2)C1 (stereo partly drawn) [Compound 262] |
| < 50 | > 1250 | < 500 | CC(C)C(O)(CF)C1CN(c2ccc(F)c(-c3n[nH]c4ncccc34)n2)CCN1 (stereo not drawn) [Compound 264] |
| < 500 | > 1250 | < 500 | CC(C)C(N)[C@H]1CCCN(c2ccc(C(F)(F)F)c(-c3n[nH]c4ncccc34)n2)C1 (stereo partly drawn) [Compound 265] |
| > 700 | > 1250 | > 1250 | Fc1ccc(N2CCCCC2)nc1-c1n[nH]c2ncccc12 [Compound 266] |
| > 700 | > 1250 | > 1250 | Fc1ccc(N2CCC(F)CC2)nc1-c1n[nH]c2ncccc12 [Compound 267] |
